{"source": "patent US20240150424A1", "about": "“DIRECTED CHEMICAL CONJUGATE OF GLUCAGON-LIKE PEPTIDE-2 MUTANT, AND USE THEREOF” (PEG-BIO BIOPHARM CO.,LTD.(CHONGQING), priority 2021, published 2024)", "key": {"[1]": {"settings": "rats; cited from earlier work"}, "[2]": {"settings": "cited from earlier work"}, "[3]": {"tested_on": "5-FU-induced diarrhea and intestinal mucosa injury model", "assay": "Diarrhea and intestinal mucosa injury model caused by 5-FU in rats", "assay_type": "in vivo, SD rats", "settings": "for Number of animals with diarrhea (denominator): 10 rats each group", "protocol": "Forty adult SD rats weighing 200 to 300 g were equally divided into 4 groups, 10 rats each group. A Model group was subcutaneously administered with the placebo once a day for 9 days, a Ted group was subcutaneously administered at 1 mg/Kg once a day for 9 days, and a PF01 group and a PF04 group were subcutaneously administered at 3 mg/Kg once every three days for a total of 3 times. All rats were intraperitoneally injected with 5-FU at 50 mg/Kg once a day on the 4th day to the 6th day. Diarrhea and body weight changes in rats were recorded every day after the first administration of 5-FU. On the 10th day, body weight was weighed, blood was collected, and jejunum was taken for case sections. Diarrhea was identified based on scores, with 0 indicating no diarrhea, 1 indicating mild diarrhea with feces adhering to the anus, 2 indicating moderate diarrhea with feces adhering to the hind legs and tail, 3 indicating severe diarrhea with feces adhering to the front legs and abdomen, and 4 indicating death. In Table 6, the numerator represents the diarrhea score, and the denominator represents the number of animals with diarrhea."}, "[4]": {"tested_on": "small intestine hyperplasia in minor mice", "assay": "Test on promoting small intestinal hyperplasia in minor Kunming mice", "assay_type": "in vivo", "protocol": "Forty minor Kunming mice weighing 10 to 20 g were equally divided into […], 10 mice each group. The control group was subcutaneously administered with the placebo once a day for 9 days, the Ted group was subcutaneously administered at 1 mg/Kg once a day for 9 days, and the PF01 group and the PF04 group were subcutaneously administered at 3 mg/Kg once every three days for a total of 3 times. All experimental animals were weighed before administration. On the 10th day after administration, the body weight was weighed, blood was collected, and small intestine length and weight were determined."}, "[5]": {"settings": "24 h after the administration of 5-FU"}, "[6]": {"settings": "48 h after the administration of 5-FU"}, "[7]": {"settings": "72 h after the administration of 5-FU"}, "[8]": {"settings": "96 h after the administration of 5-FU"}, "[9]": {"settings": "10th day, Ted 1 mg/Kg sc once a day for 9 days, PF01/PF04 3 mg/Kg sc once every three days, 3 times"}}}
{"smiles": "CC[C@H](C)[C@H](NC(=O)[C@H](Cc1ccccc1)NC(=O)[C@H](CC(=O)O)NC(=O)[C@H](CCCNC(=N)N)NC(=O)[C@H](C)NC(=O)[C@H](C)NC(=O)[C@H](CC(C)C)NC(=O)[C@H](CC(N)=O)NC(=O)[C@H](CC(=O)O)NC(=O)[C@H](CC(C)C)NC(=O)[C@@H](NC(=O)[C@@H](NC(=O)[C@H](CC(N)=O)NC(=O)[C@H](CCSC)NC(=O)[C@H](CCC(=O)O)NC(=O)[C@H](CC(=O)O)NC(=O)[C@H](CO)NC(=O)[C@H](Cc1ccccc1)NC(=O)[C@H](CO)NC(=O)CNC(=O)[C@H](CC(=O)O)NC(=O)CNC(=O)[C@@H](N)Cc1c[nH]cn1)[C@@H](C)O)[C@@H](C)CC)C(=O)N[C@@H](CC(N)=O)C(=O)N[C@@H](Cc1c[nH]c2ccccc12)C(=O)N[C@@H](CC(C)C)C(=O)N[C@H](C(=O)N[C@@H](CCC(N)=O)C(=O)N[C@H](C(=O)N[C@@H](CCCCN)C(=O)N[C@H](C(=O)N[C@H](C(=O)N[C@@H](CC(=O)O)C(=O)O)[C@@H](C)O)[C@@H](C)CC)[C@@H](C)O)[C@@H](C)CC", "note": "[Teduglutide]", "values": [{"measurement": "in vivo half-life in rats", "setting": "[1]", "value": 0.5, "unit": "h"}, {"measurement": "half-life in vivo in humans", "setting": "[2]", "value": 2, "unit": "h"}, {"measurement": "Diarrhea score (numerator)", "setting": "[3]; [5]", "value": "0/0"}, {"measurement": "Number of animals with diarrhea (denominator)", "setting": "[3]; [5]", "value": "0/0"}, {"measurement": "Diarrhea score (numerator)", "setting": "[3]; [6]", "value": "4/4"}, {"measurement": "Number of animals with diarrhea (denominator)", "setting": "[3]; [6]", "value": "4/4"}, {"measurement": "Diarrhea score (numerator)", "setting": "[3]; [7]", "value": 4}, {"measurement": "Number of animals with diarrhea (denominator)", "setting": "[3]; [7]", "value": 3}, {"measurement": "Diarrhea score (numerator)", "setting": "[3]; [8]", "value": "3/3"}, {"measurement": "Number of animals with diarrhea (denominator)", "setting": "[3]; [8]", "value": "3/3"}, {"measurement": "Rank of citrulline (CIT) content between groups", "setting": "[3]; FIG. 7, before chemotherapy, 48 h and 144 h after chemotherapy", "value": "citrulline content in the PF01 group>that in the PF04 group>that in the Ted group>that in the Model group"}, {"measurement": "Case sections of jejunum: height of villi and number of crypt cells, rank of groups", "setting": "[3]; FIG. 8, 10th day", "value": "the PF01 group>the PF04 group>the Ted group>the control group"}, {"measurement": "Serum citrulline content 96 h after the first administration of 5-FU", "setting": "[3]; Table 5, 96 h", "value": 16.50, "unit": "µg/mL"}, {"measurement": "Serum citrulline content 48 h after the administration of 5-FU", "setting": "[3]; Table 7, 48 h", "value": 2.04, "unit": "µg/mL"}, {"measurement": "Serum citrulline content 96 h after the administration of 5-FU", "setting": "[3]; Table 7, 96 h", "value": 3.53, "unit": "µg/mL"}, {"measurement": "Serum citrulline content 144 h after the administration of 5-FU", "setting": "[3]; Table 7, 144 h", "value": 10.37, "unit": "µg/mL"}, {"measurement": "Serum citrulline content before the administration of 5-FU", "setting": "[3]; Table 7, before 5-FU", "value": 21.74, "unit": "µg/mL"}, {"measurement": "Body weight before the first administration of 5-FU", "setting": "[3]; Ted 1 mg/Kg sc daily 9 days, PF01/PF04 3 mg/Kg sc every three days x3, 5-FU 50 mg/Kg ip day 4-6", "value": 272.46, "unit": "g"}, {"measurement": "Body weight 24 h after the first administration of 5-FU", "setting": "[3]; same regimen, 24 h", "value": 274.36, "unit": "g"}, {"measurement": "Body weight 48 h after the first administration of 5-FU", "setting": "[3]; same regimen, 48 h", "value": 257.94, "unit": "g"}, {"measurement": "Body weight 72 h after the first administration of 5-FU", "setting": "[3]; same regimen, 72 h", "value": 260.95, "unit": "g"}, {"measurement": "Body weight 96 h after the first administration of 5-FU", "setting": "[3]; same regimen, 96 h", "value": 275.43, "unit": "g"}, {"measurement": "Body weight of mice at the end of the experiment", "setting": "[4]; [9]", "value": "18.06 ± 0.49", "unit": "g"}, {"measurement": "Serum citrulline content", "setting": "[4]; [9]", "value": 14.47, "unit": "µg/mL"}, {"measurement": "Small intestine length", "setting": "[4]; [9]", "value": 37.4, "unit": "cm"}, {"measurement": "Small intestine weight", "setting": "[4]; [9]", "value": 1.75, "unit": "g"}, {"measurement": "Body weight of mice before administration", "setting": "[4]; baseline, before administration", "value": "13.32 ± 0.49", "unit": "g"}, {"measurement": "Comparison of groups in mice body weight, serum citrulline, small intestine length and small intestine weight", "setting": "[4]; text summary of Table 4", "value": "superior to the control group"}]}
